Consider 14 compounds from patent publication US9850283B2, “Macrocyclic inhibitors of the PD-1/PD-L1 and CD80(B7-1)/PD-L1 protein/protein interactions” (BRISTOL-MYERS SQUIBB COMPANY, priority 2013, dated 2017).

Positions of bridges follow the written chain, without caps; N, C: chain ends. Non-standard residues stand in square brackets, D forms with d. Residues, ends and D or L forms follow the SMILES beside them. Hyp = O=C(O)[C@@H]1C[C@@H](O)CN1; NMeNle = CCCC[C@H](NC)C(=O)O; NMeA = CN[C@@H](C)C(=O)O; Orn = NCCC[C@H](N)C(=O)O; Dab = NCC[C@H](N)C(=O)O

In assay [1] the target is T1, LK35.2-hPD-L1 cells / PE-labeled PD-1-Ig (Homo sapiens, UniProt Q9NZQ7).
T1 construct: expressed in transfected cells; host or cells: LK35.2 mouse B cell line
T1 sequence (Q9NZQ7 19-290): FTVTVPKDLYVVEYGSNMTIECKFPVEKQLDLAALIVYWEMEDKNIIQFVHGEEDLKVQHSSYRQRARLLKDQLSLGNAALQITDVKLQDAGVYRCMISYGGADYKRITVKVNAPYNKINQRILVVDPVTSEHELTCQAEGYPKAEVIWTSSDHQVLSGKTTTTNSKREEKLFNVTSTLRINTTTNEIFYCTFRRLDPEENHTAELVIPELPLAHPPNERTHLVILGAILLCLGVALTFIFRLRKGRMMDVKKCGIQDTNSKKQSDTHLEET
Description: LK35.2-hPD-L1 cell binding high-content screening assay. The class given is cell-based. The note with it: cell binding assay, cell line not given; cluster symbol; read-out: CBA IC50 cluster. A digest of the protocol: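 Binding of PE-conjugated human PD-1-Ig (1 nM final) to human PD-L1 stably expressed on a mouse B-cell line (LK35.2) was measured by high-content imaging after washes. Compound and labeled PD-1-Ig were co-incubated 1 h at 37 °C with cells in RPMI/10% FCS.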

Another assay concerns the target T2, Human PD-L1/PD-1 (Homo sapiens, UniProt Q9NZQ7).
T2 construct: made in house; host or cells: HEK293T
Kind of assay: HTRF PD-1-Ig/PD-L1-His binding assay (human PD-L1). The note with it: cluster symbol; read-out: HTRF IC50 cluster. An outline of the steps:
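Soluble Fc-fused PD-1 and His-tagged PD-L1 (truncated before the transmembrane region) were combined in dPBS with 0.1% (w/v) BSA and 0.05% (v/v) Tween-20. Binding was read by HTRF using europium cryptate anti-Ig antibody (1 nM final) and APC anti-His antibody (20 nM final).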

T2 sequence (Q9NZQ7 with tags, fused parts or gaps): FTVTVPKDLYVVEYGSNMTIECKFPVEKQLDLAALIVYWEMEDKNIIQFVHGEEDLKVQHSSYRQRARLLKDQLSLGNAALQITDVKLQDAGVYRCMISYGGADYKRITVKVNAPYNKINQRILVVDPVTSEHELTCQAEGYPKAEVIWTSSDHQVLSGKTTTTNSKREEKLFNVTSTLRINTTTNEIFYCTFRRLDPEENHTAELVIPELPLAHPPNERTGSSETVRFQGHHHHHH

For the compound `CCCC[C@H]1C(=O)N(C)[C@@H](CCCC)C(=O)N[C@@H](CCCNC(=N)N)C(=O)N[C@H](C(=O)NCC(N)=O)CSCC(=O)N[C@@H](Cc2ccc(O)cc2)C(=O)N(C)[C@@H](C)C(=O)N[C@@H](CCCN)C(=O)N2CCC[C@H]2C(=O)N[C@@H](Cc2c[nH]cn2)C(=O)N[C@@H](CC(=O)O)C(=O)N2C[C@H](O)C[C@H]2C(=O)N[C@@H](Cc2c[nH]c3ccccc23)C(=O)N[C@@H](CO)C(=O)N[C@@H](Cc2c[nH]c3ccccc23)C(=O)N1C` [Example 5105] ({CH2CO}-Y[NMeA][Orn]PHD[Hyp]WSW[NMeNle][NMeNle]RCG-NH2; thioether N-14), the IC50 fell in the range of 4.78 to 72.9 nM in assay [1] and 6.76 to 30.3 nM at Human PD-L1/PD-1.

With `CCCC[C@H]1C(=O)N(C)[C@@H](CCCC)C(=O)N[C@@H](CCC(=O)O)C(=O)N[C@H](C(=O)NCC(N)=O)CSCC(=O)N[C@@H](Cc2ccc(O)cc2)C(=O)N(C)[C@@H](C)C(=O)N[C@@H](CC(N)=O)C(=O)N2CCC[C@H]2C(=O)N[C@@H](Cc2c[nH]cn2)C(=O)N[C@@H](CCC(N)=O)C(=O)N2C[C@H](O)C[C@H]2C(=O)N[C@@H](Cc2c[nH]c3ccccc23)C(=O)N[C@@H](CCCCN)C(=O)N[C@@H](Cc2c[nH]c3ccccc23)C(=O)N1C` [Example 5106] ({CH2CO}-Y[NMeA]NPHQ[Hyp]WKW[NMeNle][NMeNle]ECG-NH2; thioether N-14), the IC50 lay within 0.158 to 4.71 nM in assay [1] and 0.385 to 6.74 nM at Human PD-L1/PD-1.

For the compound `CCCC[C@H]1C(=O)N(C)[C@@H](CCCC)C(=O)N[C@@H](CC(C)C)C(=O)N[C@H](C(=O)NCC(N)=O)CSCC(=O)N[C@@H](Cc2ccc(O)cc2)C(=O)N(C)[C@@H](C)C(=O)N[C@@H](CCN)C(=O)N2CCC[C@H]2C(=O)N[C@@H](Cc2c[nH]cn2)C(=O)N[C@@H](CCC(=O)O)C(=O)N2C[C@H](O)C[C@H]2C(=O)N[C@@H](Cc2c[nH]c3ccccc23)C(=O)N[C@@H](C(C)C)C(=O)N[C@@H](Cc2c[nH]c3ccccc23)C(=O)N1C` [Example 5107] ({CH2CO}-Y[NMeA][Dab]PHE[Hyp]WVW[NMeNle][NMeNle]LCG-NH2; thioether N-14), the IC50 was in the range of 4.78 to 72.9 nM in assay [1] and 6.76 to 30.3 nM on Human PD-L1/PD-1.

In the case of `CCCC[C@H]1C(=O)N(C)[C@@H](CCCC)C(=O)N[C@@H](CO)C(=O)N[C@H](C(=O)NCC(N)=O)CSCC(=O)N[C@@H](Cc2ccc(O)cc2)C(=O)N(C)[C@@H](C)C(=O)N[C@@H](CCN)C(=O)N2CCC[C@H]2C(=O)N[C@@H](Cc2c[nH]cn2)C(=O)N[C@@H](CCC(=O)O)C(=O)N2C[C@H](O)C[C@H]2C(=O)N[C@@H](Cc2c[nH]c3ccccc23)C(=O)N[C@@H](CO)C(=O)N[C@@H](Cc2c[nH]c3ccccc23)C(=O)N1C` [Example 5108] ({CH2CO}-Y[NMeA][Dab]PHE[Hyp]WSW[NMeNle][NMeNle]SCG-NH2; thioether N-14), the IC50 was 4.78 to 72.9 nM in assay [1] and 6.76 to 30.3 nM on Human PD-L1/PD-1.

For the compound `CCCC[C@H]1C(=O)N(C)[C@@H](CCCC)C(=O)N[C@@H](CC(C)C)C(=O)N[C@H](C(=O)NCC(N)=O)CSCC(=O)N[C@@H](Cc2ccc(O)cc2)C(=O)N(C)[C@@H](C)C(=O)N[C@@H](CC(N)=O)C(=O)N2CCC[C@H]2C(=O)N[C@@H](Cc2c[nH]cn2)C(=O)N[C@@H](CCC(N)=O)C(=O)N2C[C@H](O)C[C@H]2C(=O)N[C@@H](Cc2c[nH]c3ccccc23)C(=O)NCC(=O)N[C@@H](Cc2c[nH]c3ccccc23)C(=O)N1C` [Example 5109] ({CH2CO}-Y[NMeA]NPHQ[Hyp]WGW[NMeNle][NMeNle]LCG-NH2; thioether N-14), the IC50 in assay [1] lay in the range of 0.158 to 4.71 nM; on Human PD-L1/PD-1, 0.385 to 6.74 nM.

`CCCC[C@H]1C(=O)N(C)[C@@H](CCCC)C(=O)N[C@@H](CCCNC(=N)N)C(=O)N[C@H](C(=O)NCC(N)=O)CSCC(=O)N[C@@H](Cc2ccc(O)cc2)C(=O)N(C)[C@@H](C)C(=O)N[C@@H](CC(=O)O)C(=O)N2CCC[C@H]2C(=O)N[C@@H](Cc2c[nH]cn2)C(=O)N[C@@H](CCCCN)C(=O)N2C[C@H](O)C[C@H]2C(=O)N[C@@H](Cc2c[nH]c3ccccc23)C(=O)N[C@@H](CCCCN)C(=O)N[C@@H](Cc2c[nH]c3ccccc23)C(=O)N1C` [Example 5110] ({CH2CO}-Y[NMeA]DPHK[Hyp]WKW[NMeNle][NMeNle]RCG-NH2; thioether N-14): the IC50 in assay [1] lay in the range of 0.158 to 4.71 nM; on Human PD-L1/PD-1, 0.385 to 6.74 nM.

Regarding `CCCC[C@H]1C(=O)N(C)[C@@H](CCCC)C(=O)N[C@@H](CCC(=O)O)C(=O)N[C@H](C(=O)NCC(N)=O)CSCC(=O)N[C@@H](Cc2ccc(O)cc2)C(=O)N(C)[C@@H](C)C(=O)N[C@@H](CCN)C(=O)N2CCC[C@H]2C(=O)N[C@@H](Cc2c[nH]cn2)C(=O)N[C@@H](CCC(=O)O)C(=O)N2C[C@H](O)C[C@H]2C(=O)N[C@@H](Cc2c[nH]c3ccccc23)C(=O)N[C@@H](CO)C(=O)N[C@@H](Cc2c[nH]c3ccccc23)C(=O)N1C` [Example 5111] ({CH2CO}-Y[NMeA][Dab]PHE[Hyp]WSW[NMeNle][NMeNle]ECG-NH2; thioether N-14), the figures for the IC50 (in assay [1]; at Human PD-L1/PD-1) were 4.78 to 72.9 nM and 6.76 to 30.3 nM, respectively.

Consider `CCCC[C@H]1C(=O)N(C)[C@@H](CCCC)C(=O)N[C@@H](CCC(=O)O)C(=O)N[C@H](C(=O)NCC(N)=O)CSCC(=O)N[C@@H](Cc2ccc(O)cc2)C(=O)N(C)[C@@H](C)C(=O)N[C@@H](CCN)C(=O)N2CCC[C@H]2C(=O)N[C@@H](Cc2c[nH]cn2)C(=O)N[C@@H](CCC(=O)O)C(=O)N2C[C@H](O)C[C@H]2C(=O)N[C@@H](Cc2c[nH]c3ccccc23)C(=O)N[C@@H](CCCCN)C(=O)N[C@@H](Cc2c[nH]c3ccccc23)C(=O)N1C` [Example 5112] ({CH2CO}-Y[NMeA][Dab]PHE[Hyp]WKW[NMeNle][NMeNle]ECG-NH2; thioether N-14), for which the values for the half-inhibitory concentration (IC50) (in assay [1]; at Human PD-L1/PD-1) were 0.158 to 4.71 nM and 0.385 to 6.74 nM, respectively.

With `CCCC[C@H]1C(=O)N(C)[C@@H](CCCC)C(=O)N[C@@H](CCCNC(=N)N)C(=O)N[C@H](C(=O)NCC(N)=O)CSCC(=O)N[C@@H](Cc2ccc(O)cc2)C(=O)N(C)[C@@H](C)C(=O)N[C@@H](CCCN)C(=O)N2CCC[C@H]2C(=O)N[C@@H](Cc2c[nH]cn2)C(=O)N[C@@H](CCC(=O)O)C(=O)N2C[C@H](O)C[C@H]2C(=O)N[C@@H](Cc2c[nH]c3ccccc23)C(=O)N[C@@H](CO)C(=O)N[C@@H](Cc2c[nH]c3ccccc23)C(=O)N1C` [Example 5113] ({CH2CO}-Y[NMeA][Orn]PHE[Hyp]WSW[NMeNle][NMeNle]RCG-NH2; thioether N-14), the IC50 fell in the range of 0.158 to 4.71 nM in assay [1] and 0.385 to 6.74 nM at Human PD-L1/PD-1.

In the case of `CCCC[C@H]1C(=O)N(C)[C@@H](CCCC)C(=O)N[C@@H](CCCN)C(=O)N[C@H](C(=O)NCC(N)=O)CSCC(=O)N[C@@H](Cc2ccc(O)cc2)C(=O)N(C)[C@@H](C)C(=O)N[C@@H](CC(=O)O)C(=O)N2CCC[C@H]2C(=O)N[C@@H](Cc2c[nH]cn2)C(=O)N[C@@H](CCC(N)=O)C(=O)N2C[C@H](O)C[C@H]2C(=O)N[C@@H](Cc2c[nH]c3ccccc23)C(=O)N[C@@H](CO)C(=O)N[C@@H](Cc2c[nH]c3ccccc23)C(=O)N1C` [Example 5114] ({CH2CO}-Y[NMeA]DPHQ[Hyp]WSW[NMeNle][NMeNle][Orn]CG-NH2; thioether N-14), the IC50 in assay [1] is 0.158 to 4.71 nM; on Human PD-L1/PD-1, 0.385 to 6.74 nM.

As for `CCCC[C@H]1C(=O)N(C)[C@@H](CCCC)C(=O)N[C@@H](CC(C)C)C(=O)N[C@H](C(=O)NCC(N)=O)CSCC(=O)N[C@@H](Cc2ccc(O)cc2)C(=O)N(C)[C@@H](C)C(=O)N[C@@H](CC(N)=O)C(=O)N2CCC[C@H]2C(=O)N[C@@H](CO)C(=O)N[C@@H](CCC(N)=O)C(=O)N2C[C@H](O)C[C@H]2C(=O)N[C@@H](Cc2c[nH]c3ccccc23)C(=O)N[C@@H](CO)C(=O)N[C@@H](Cc2c[nH]c3ccccc23)C(=O)N1C` [Example 5115] ({CH2CO}-Y[NMeA]NPSQ[Hyp]WSW[NMeNle][NMeNle]LCG-NH2; thioether N-14), the IC50 lay within 0.158 to 4.71 nM in assay [1] and 0.385 to 6.74 nM at Human PD-L1/PD-1.

Take `CCCC[C@H]1C(=O)N(C)[C@@H](CCCC)C(=O)N[C@@H](CO)C(=O)N[C@H](C(=O)NCC(N)=O)CSCC(=O)N[C@@H](Cc2ccc(O)cc2)C(=O)N(C)[C@@H](C)C(=O)N[C@@H](CO)C(=O)N2CCC[C@H]2C(=O)N[C@@H](CO)C(=O)N[C@@H](CC(C)C)C(=O)N2C[C@H](O)C[C@H]2C(=O)N[C@@H](Cc2c[nH]c3ccccc23)C(=O)N[C@@H](CO)C(=O)N[C@@H](Cc2c[nH]c3ccccc23)C(=O)N1C` [Example 5116] ({CH2CO}-Y[NMeA]SPSL[Hyp]WSW[NMeNle][NMeNle]SCG-NH2; thioether N-14): the concentration for half-maximal inhibition (IC50) lay in the range of 4.78 to 72.9 nM in assay [1] and 0.385 to 6.74 nM at Human PD-L1/PD-1.

With `CCCC[C@H]1C(=O)N(C)[C@@H](CCCC)C(=O)N[C@@H](CO)C(=O)N[C@H](C(=O)NCC(N)=O)CSCC(=O)N[C@@H](Cc2ccc(O)cc2)C(=O)N(C)[C@@H](C)C(=O)N[C@@H](CC(N)=O)C(=O)N2CCC[C@H]2C(=O)N[C@@H](CO)C(=O)N[C@@H](CC(C)C)C(=O)N2C[C@H](O)C[C@H]2C(=O)N[C@@H](Cc2c[nH]c3ccccc23)C(=O)N[C@@H](CO)C(=O)N[C@@H](Cc2c[nH]c3ccccc23)C(=O)N1C` [Example 5118] ({CH2CO}-Y[NMeA]NPSL[Hyp]WSW[NMeNle][NMeNle]SCG-NH2; thioether N-14), the IC50 lay within 0.158 to 4.71 nM in assay [1] and 0.385 to 6.74 nM at Human PD-L1/PD-1.

Consider `CCCC[C@H]1C(=O)N(C)[C@@H](CCCC)C(=O)N[C@@H](CO)C(=O)N[C@H](C(=O)NCC(N)=O)CSCC(=O)N[C@@H](Cc2ccc(O)cc2)C(=O)N(C)[C@@H](C)C(=O)N[C@@H](CCN)C(=O)N2CCC[C@H]2C(=O)N[C@@H](CO)C(=O)N[C@@H](CCC(=O)O)C(=O)N2C[C@H](O)C[C@H]2C(=O)N[C@@H](Cc2c[nH]c3ccccc23)C(=O)N[C@@H](CO)C(=O)N[C@@H](Cc2c[nH]c3ccccc23)C(=O)N1C` [Example 5119] ({CH2CO}-Y[NMeA][Dab]PSE[Hyp]WSW[NMeNle][NMeNle]SCG-NH2; thioether N-14), for which the IC50 in assay [1] was in the range of 4.78 to 72.9 nM; at Human PD-L1/PD-1, 0.385 to 6.74 nM.

In general, IC50 refers to the concentration that gives 50% inhibition.
